In US8952024B2, “Herbicidal pyrimidone derivatives” (E I du Pont de Nemours and Company, priority 2009, dated 2015):

Assays:
Test in all cases: Test B pre-/postemergence plant response
Format in all cases: in vivo
corn (Zea mays) = system: corn (Zea mays)
Method in brief: (§1)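 Steps: sow seed in loam–sand soil and spray preemergence, or grow plants in peat-based medium to 1–4 leaves (2–18 cm) and spray postemergence; formulation is non-phytotoxic solvent plus surfactant; hold in greenhouse 13–15 days; score visually vs controls, 0 = no effect, 100 = complete control.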

[1] = system: bermudagrass (Cynodon dactylon)
Method in brief: as §1

[2] = system: green foxtail (Setaria viridis)
Method in brief: as §1

[3] = system: cocklebur (Xanthium strumarium)
Method in brief: as §1

[4] = system: large crabgrass (Digitaria sanguinalis)
Method in brief: as §1

wild oat (Avena fatua) = system: wild oat (Avena fatua)
Method in brief: as §1

[5] = system: Surinam grass (Brachiaria decumbens)
Method in brief: as §1

soybean (Glycine max) = system: soybean (Glycine max)
Method in brief: as §1

[6] = system: yellow nutsedge (Cyperus esculentus)
Method in brief: as §1

[7] = system: velvetleaf (Abutilon theophrasti)
Method in brief: as §1

kochia (Kochia scoparia) = system: kochia (Kochia scoparia)
Method in brief: as §1

[8] = system: pigweed (Amaranthus retroflexus)
Method in brief: as §1

[9] = system: lambsquarters (Chenopodium album)
Method in brief: as §1

[10] = system: downy bromegrass (Bromus tectorum)
Method in brief: as §1

[11] = system: blackgrass (Alopecurus myosuroides)
Method in brief: as §1

[12] = system: ragweed (common ragweed, Ambrosia elatior)
Method in brief: as §1

[13] = system: Italian ryegrass (Lolium multiflorum)
Method in brief: as §1

[14] = 31 g ai/ha, postemergence, scale 0 to 100, 0 is no effect, 100 is complete control
[15] = 250 g ai/ha, Preemergence, 0 to 100 scale
[16] = Postemergence, 62 g ai/ha, scale 0 (no effect) to 100 (complete control), 13 to 15 days
[17] = Postemergence, 125 g ai/ha, visual rating after 13 to 15 days, scale 0 (no effect) to 100 (complete control)
[18] = Postemergence, 250 g ai/ha, scale 0 to 100 (0 no effect, 100 complete control)
[19] = Preemergence, 31 g ai/ha, scale 0 to 100 (0 no effect, 100 complete control)
[20] = Preemergence, 62 g ai/ha, scale 0 to 100, 0 no effect, 100 complete control
[21] = Preemergence, 125 g ai/ha, scale 0 to 100, 0 no effect, 100 complete control

O=C1CCCC(O)=C1C(=O)c1cnc(-c2cccs2)n(-c2ccccc2)c1=O [Compound 66]
Plant response rating, Corn (corn (Zea mays); [14]): 25
Plant response rating, Corn (corn (Zea mays); [15]): 0
Plant response rating, Corn (corn (Zea mays); [16]): 55
Plant response rating, Corn (corn (Zea mays); [17]): 70
Plant response rating, Corn (corn (Zea mays); [18]): 75
Plant response rating, Corn (corn (Zea mays); [19]): 0
Plant response rating, Corn (corn (Zea mays); [20]): 0
Plant response rating, Corn (corn (Zea mays); [21]): 0
Plant response rating, Bermudagrass [1, 14]: 70
Plant response rating, Bermudagrass [1, 15]: 98
Plant response rating, Bermudagrass [1, 16]: 70
Plant response rating, Bermudagrass [1, 17]: 95
Plant response rating, Bermudagrass [1, 18]: 95
Plant response rating, Bermudagrass [1, 19]: 20
Plant response rating, Bermudagrass [1, 20]: 80
Plant response rating, Bermudagrass [1, 21]: 98
Plant response rating, Foxtail, Green [2, 14]: 80
Plant response rating, Foxtail, Green [2, 15]: 75
Plant response rating, Foxtail, Green [2, 16]: 85
Plant response rating, Foxtail, Green [2, 17]: 90
Plant response rating, Foxtail, Green [2, 18]: 98
Plant response rating, Foxtail, Green [2, 19]: 0
Plant response rating, Foxtail, Green [2, 20]: 5
Plant response rating, Foxtail, Green [2, 21]: 30
Plant response rating, Cocklebur [3, 14]: 10
Plant response rating, Cocklebur [3, 15]: 0
Plant response rating, Cocklebur [3, 16]: 10
Plant response rating, Cocklebur [3, 17]: 25
Plant response rating, Cocklebur [3, 18]: 45
Plant response rating, Cocklebur [3, 19]: 0
Plant response rating, Cocklebur [3, 20]: 0
Plant response rating, Cocklebur [3, 21]: 0
Plant response rating, Crabgrass, Large [4, 14]: 50
Plant response rating, Crabgrass, Large [4, 15]: 100
Plant response rating, Crabgrass, Large [4, 16]: 55
Plant response rating, Crabgrass, Large [4, 17]: 65
Plant response rating, Crabgrass, Large [4, 18]: 70
Plant response rating, Crabgrass, Large [4, 19]: 70
Plant response rating, Crabgrass, Large [4, 20]: 85
Plant response rating, Crabgrass, Large [4, 21]: 95
Plant response rating, Oat, Wild (wild oat (Avena fatua); [14]): 0
Plant response rating, Oat, Wild (wild oat (Avena fatua); [16]): 0
Plant response rating, Oat, Wild (wild oat (Avena fatua); [17]): 5
Plant response rating, Oat, Wild (wild oat (Avena fatua); [18]): 10
Plant response rating, Oat, Wild (wild oat (Avena fatua); [19]): 0
Plant response rating, Oat, Wild (wild oat (Avena fatua); [20]): 0
Plant response rating, Oat, Wild (wild oat (Avena fatua); [21]): 0
Plant response rating, Surinam Grass [5, 14]: 65
Plant response rating, Surinam Grass [5, 16]: 70
Plant response rating, Surinam Grass [5, 17]: 85
Plant response rating, Surinam Grass [5, 18]: 98
Plant response rating, Surinam Grass [5, 19]: 35
Plant response rating, Surinam Grass [5, 20]: 80
Plant response rating, Surinam Grass [5, 21]: 90
Plant response rating, Soybean (soybean (Glycine max); [14]): 95
Plant response rating, Soybean (soybean (Glycine max); [16]): 95
Plant response rating, Soybean (soybean (Glycine max); [17]): 98
Plant response rating, Soybean (soybean (Glycine max); [18]): 98
Plant response rating, Nutsedge, Yellow [6, 14]: 25
Plant response rating, Nutsedge, Yellow [6, 16]: 45
Plant response rating, Nutsedge, Yellow [6, 17]: 65
Plant response rating, Nutsedge, Yellow [6, 18]: 70
Plant response rating, Nutsedge, Yellow [6, 19]: 10
Plant response rating, Nutsedge, Yellow [6, 20]: 30
Plant response rating, Nutsedge, Yellow [6, 21]: 85
Plant response rating, Velvetleaf [7, 14]: 85
Plant response rating, Velvetleaf [7, 16]: 90
Plant response rating, Velvetleaf [7, 17]: 98
Plant response rating, Velvetleaf [7, 18]: 100
Plant response rating, Velvetleaf [7, 19]: 80
Plant response rating, Velvetleaf [7, 20]: 80
Plant response rating, Velvetleaf [7, 21]: 95
Plant response rating, Kochia (kochia (Kochia scoparia); [14]): 80
Plant response rating, Kochia (kochia (Kochia scoparia); [15]): 85
Plant response rating, Kochia (kochia (Kochia scoparia); [16]): 85
Plant response rating, Kochia (kochia (Kochia scoparia); [17]): 90
Plant response rating, Kochia (kochia (Kochia scoparia); [18]): 98
Plant response rating, Kochia (kochia (Kochia scoparia); [19]): 80
Plant response rating, Kochia (kochia (Kochia scoparia); [20]): 80
Plant response rating, Kochia (kochia (Kochia scoparia); [21]): 85
Plant response rating, Pigweed [8, 14]: 98
Plant response rating, Pigweed [8, 16]: 98
Plant response rating, Pigweed [8, 17]: 100
Plant response rating, Pigweed [8, 18]: 100
Plant response rating, Pigweed [8, 19]: 98
Plant response rating, Pigweed [8, 20]: 98
Plant response rating, Pigweed [8, 21]: 98
Plant response rating, Lambsquarters [9, 14]: 95
Plant response rating, Lambsquarters [9, 15]: 100
Plant response rating, Lambsquarters [9, 16]: 95
Plant response rating, Lambsquarters [9, 17]: 95
Plant response rating, Lambsquarters [9, 18]: 100
Plant response rating, Lambsquarters [9, 19]: 98
Plant response rating, Lambsquarters [9, 20]: 98
Plant response rating, Lambsquarters [9, 21]: 98
Plant response rating, Bromegrass, Downy [10, 14]: 5
Plant response rating, Bromegrass, Downy [10, 15]: 0
Plant response rating, Bromegrass, Downy [10, 16]: 10
Plant response rating, Bromegrass, Downy [10, 17]: 20
Plant response rating, Bromegrass, Downy [10, 18]: 25
Plant response rating, Bromegrass, Downy [10, 19]: 0
Plant response rating, Bromegrass, Downy [10, 20]: 0
Plant response rating, Bromegrass, Downy [10, 21]: 0
Plant response rating, Blackgrass [11, 14]: 5
Plant response rating, Blackgrass [11, 15]: 5
Plant response rating, Blackgrass [11, 16]: 10
Plant response rating, Blackgrass [11, 17]: 10
Plant response rating, Blackgrass [11, 18]: 15
Plant response rating, Blackgrass [11, 19]: 0
Plant response rating, Blackgrass [11, 20]: 0
Plant response rating, Blackgrass [11, 21]: 5
Plant response rating, Ragweed [12, 14]: 0
Plant response rating, Ragweed [12, 16]: 10
Plant response rating, Ragweed [12, 17]: 25
Plant response rating, Ragweed [12, 18]: 60
Plant response rating, Ragweed [12, 19]: 0
Plant response rating, Ragweed [12, 20]: 0
Plant response rating, Ragweed [12, 21]: 45
Plant response rating, Ryegrass, Italian [13, 14]: 0
Plant response rating, Ryegrass, Italian [13, 16]: 0
Plant response rating, Ryegrass, Italian [13, 17]: 5
Plant response rating, Ryegrass, Italian [13, 18]: 10
Plant response rating, Ryegrass, Italian [13, 19]: 0
Plant response rating, Ryegrass, Italian [13, 20]: 0
Plant response rating, Ryegrass, Italian [13, 21]: 0
